Target: METTL3/METTL14 (Homo sapiens, UniProt Q86U44)
Assay: METTL3-14 standard enzyme assay (3H-SAM flashplate)
Conditions: Table 3; METTL3 biochemical assay
Description: METTL3-14 Standard Enzyme Assay
Assays were performed in a 25 μl-volume in 384-well V-bottom polypropylene microplates (Greiner Bio-One, cat. No. 781280) at ambient temperature. Optimized 1× assay buffer was 20 mM HEPES pH 7.5, 50 mM KCl, 250 μM MgCl2, 1 mM DTT, 0.01% Tween, 0.01% BSG, 0.004 U/μl RNAseOUT (cat. No. 10777019, ThermoFisher Scientific, Waltham, MA). For compound screening METTL3/METTL14 (final concentration, f.c.=2.5 nM) was added using a Multidrop Combi (ThermoFisher Scientific, Waltham, MA) and preincubated for 5 min. Reactions were started by adding 3′ biotinylated RNA (UCUGGACUAAA-biotin) (f.c.=100 nM) and 3H-SAM (f.c.=100 nM) substrates. Reactions proceeded for 30 minutes and were quenched with excess non-radioactive SAM (f.c.=15 μM). The reactions were then transferred to streptavidin-coated flashplates and incubated for 2 hours at 25° C. Following two washing cycles with 0.1% Tween-20, the plates were sealed and read on a TopCount (PerkinElmer, Waltham, MA) plate-based scintillation counter. For determination of kinetic parameters, reaction times were optimized so that measurements were taken during the initial velocity phase of the reaction.

Chain of METTL3/METTL14 (Q86U44 whole entry, species assumed): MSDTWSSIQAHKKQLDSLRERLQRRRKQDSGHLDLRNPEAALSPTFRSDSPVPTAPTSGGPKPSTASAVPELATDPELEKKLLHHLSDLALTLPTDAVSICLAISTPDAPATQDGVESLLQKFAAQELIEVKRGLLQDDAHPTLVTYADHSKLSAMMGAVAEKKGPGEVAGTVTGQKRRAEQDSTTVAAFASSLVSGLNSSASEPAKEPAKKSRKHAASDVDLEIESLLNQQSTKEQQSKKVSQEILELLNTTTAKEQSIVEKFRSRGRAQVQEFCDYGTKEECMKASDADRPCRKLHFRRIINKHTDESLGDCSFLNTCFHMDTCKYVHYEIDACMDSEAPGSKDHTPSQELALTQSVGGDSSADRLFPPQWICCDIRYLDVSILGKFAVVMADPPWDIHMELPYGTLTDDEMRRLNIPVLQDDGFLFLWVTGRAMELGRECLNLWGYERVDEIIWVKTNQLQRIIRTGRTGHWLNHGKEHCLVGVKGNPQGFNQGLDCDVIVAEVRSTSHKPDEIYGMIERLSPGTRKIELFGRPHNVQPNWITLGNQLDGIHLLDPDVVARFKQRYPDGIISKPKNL
Chain of METTL3/METTL14 (Q9HCE5 whole entry partner, species assumed): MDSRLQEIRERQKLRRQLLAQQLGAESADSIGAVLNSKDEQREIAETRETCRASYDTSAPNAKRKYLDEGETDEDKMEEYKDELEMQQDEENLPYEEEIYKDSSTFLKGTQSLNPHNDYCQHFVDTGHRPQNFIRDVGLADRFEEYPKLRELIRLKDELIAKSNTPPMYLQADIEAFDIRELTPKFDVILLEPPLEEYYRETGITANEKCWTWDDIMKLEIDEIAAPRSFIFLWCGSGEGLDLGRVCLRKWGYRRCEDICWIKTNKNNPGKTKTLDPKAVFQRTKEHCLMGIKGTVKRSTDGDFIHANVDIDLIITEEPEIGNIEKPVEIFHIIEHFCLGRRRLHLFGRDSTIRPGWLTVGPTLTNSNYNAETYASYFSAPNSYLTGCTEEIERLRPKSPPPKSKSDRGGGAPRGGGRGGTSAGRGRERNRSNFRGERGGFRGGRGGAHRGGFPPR

IC50 [nM]	Compound
≥ 1000	Nc1ncnc2c1c(-n1cccn1)cn2[C@H]1C[C@H](O)[C@@H](C(=O)Nc2cc(NC3CCC3)ccn2)O1 [Compound I-17, (2S,3S,5R)-5-[4-amino-5-(1H-pyrazol-1-yl)-7H-pyrrolo[2,3-d]pyrimidin-7-yl]-N-[4-(cyclobutylamino)pyridin-2-yl]-3-hydroxyoxolane-2-carboxamide]
10 to 100	Nc1ncnc2c1c(-n1cccn1)cn2[C@@H]1C[C@H](C(=O)Nc2ccc3ccc(N4CCC4)nc3c2)[C@@H](O)C1 [Compound I-14]

Same assay, conditions: Table 4; METTL3 biochemical assay

Compound	IC50 [nM]
Cn1ccc(-c2cn([C@@H]3O[C@H](C(=O)Nc4cccc5nsnc45)[C@@H](O)[C@H]3O)c3ncnc(N)c23)n1 [Compound I-118]	100 to 1000
CNC(=O)c1ccc(NC(=O)[C@H]2O[C@@H](n3cc(-c4ccn(C)n4)c4c(N)ncnc43)[C@H](O)[C@@H]2O)cc1 [Compound I-136]	100 to 1000
Cc1ccc(C(N)=O)cc1NC(=O)[C@H]1O[C@@H](n2cc(-c3ccn(C)n3)c3c(N)ncnc32)[C@H](O)[C@@H]1O [Compound I-92]	≥ 1000
Cn1ccc(-c2cn([C@@H]3O[C@H](C(=O)NCCc4ccc(C(F)(F)F)cc4)[C@@H](O)[C@H]3O)c3ncnc(N)c23)n1 [Compound I-108]	100 to 1000
Cn1ccc(-c2cn([C@@H]3O[C@H](C(=O)NCCC4CCOCC4)[C@@H](O)[C@H]3O)c3ncnc(N)c23)n1 [Compound I-96]	100 to 1000
Cc1noc(NC(=O)[C@H]2O[C@@H](n3cc(-c4ccn(C)n4)c4c(N)ncnc43)[C@H](O)[C@@H]2O)c1C [Compound I-75]	≥ 1000
CC(C)c1nnc(NC(=O)[C@H]2O[C@@H](n3cc(-c4ccn(C)n4)c4c(N)ncnc43)[C@H](O)[C@@H]2O)s1 [Compound I-70]	≥ 1000
CN(C)S(=O)(=O)c1cccc(NC(=O)[C@H]2O[C@@H](n3cc(-c4ccn(C)n4)c4c(N)ncnc43)[C@H](O)[C@@H]2O)c1 [Compound I-90]	≥ 1000
Cn1ccc(-c2cn([C@@H]3O[C@H](C(=O)NCC4CCOC4)[C@@H](O)[C@H]3O)c3ncnc(N)c23)n1 (some centres unmarked) [Compound I-89]	≥ 1000
Cc1nsc(NC(=O)[C@H]2O[C@@H](n3cc(-c4ccn(C)n4)c4c(N)ncnc43)[C@H](O)[C@@H]2O)n1 [Compound I-83]	≥ 1000
Cn1ccc(-c2cn([C@@H]3O[C@H](C(=O)Nc4ccc(Br)c(Cl)c4)[C@@H](O)[C@H]3O)c3ncnc(N)c23)n1 [Compound I-63]	≥ 1000
Cc1cc(C#N)ccc1NC(=O)[C@H]1O[C@@H](n2cc(-c3ccn(C)n3)c3c(N)ncnc32)[C@H](O)[C@@H]1O [Compound I-113]	100 to 1000
Cn1ccc(-c2cn([C@@H]3O[C@H](C(=O)NC4CCN(S(C)(=O)=O)CC4)[C@@H](O)[C@H]3O)c3ncnc(N)c23)n1 [Compound I-95]	100 to 1000
Cn1ccc(-c2cn([C@@H]3O[C@H](C(=O)Nc4cccc(N5CCOCC5)c4)[C@@H](O)[C@H]3O)c3ncnc(N)c23)n1 [Compound I-74]	≥ 1000
Cn1ccc(-c2cn([C@@H]3O[C@H](C(=O)Nc4ccncc4Cl)[C@@H](O)[C@H]3O)c3ncnc(N)c23)n1 [Compound I-122]	100 to 1000
Cn1ccc(-c2cn([C@@H]3O[C@H](C(=O)Nc4ccc(S(=O)(=O)N5CCOCC5)cc4)[C@@H](O)[C@H]3O)c3ncnc(N)c23)n1 [Compound I-107]	100 to 1000
COCC(C)NC(=O)[C@H]1O[C@@H](n2cc(-c3ccn(C)n3)c3c(N)ncnc32)[C@H](O)[C@@H]1O (some centres unmarked) [Compound I-80]	≥ 1000

Compound	IC50 [nM]
Cn1ccc(-c2cn([C@@H]3O[C@H](C(=O)Nc4cccc(C(F)(F)F)c4)[C@@H](O)[C@H]3O)c3ncnc(N)c23)n1 [Compound I-76]	≥ 1000
Cn1ccc(-c2cn([C@@H]3O[C@H](C(=O)Nc4ccc(-n5cnnn5)cc4)[C@@H](O)[C@H]3O)c3ncnc(N)c23)n1 [Compound I-138]	100 to 1000
Cn1ccc(-c2cn([C@@H]3O[C@H](C(=O)Nc4ccc(C(=O)N5CCCCC5)cc4)[C@@H](O)[C@H]3O)c3ncnc(N)c23)n1 [Compound I-135]	100 to 1000
Cn1ccc(-c2cn([C@@H]3O[C@H](C(=O)Nc4cc(Cl)cc(Cl)c4)[C@@H](O)[C@H]3O)c3ncnc(N)c23)n1 [Compound I-67]	≥ 1000
Cn1ccc(-c2cn([C@@H]3O[C@H](C(=O)Nc4ccc5c(c4)OCCCO5)[C@@H](O)[C@H]3O)c3ncnc(N)c23)n1 [Compound I-124]	100 to 1000
Cn1ccc(-c2cn([C@@H]3O[C@H](C(=O)NCCCn4ccnc4)[C@@H](O)[C@H]3O)c3ncnc(N)c23)n1 [Compound I-102]	100 to 1000
Cn1ccc(-c2cn([C@@H]3O[C@H](C(=O)NCCc4ccc(-c5ccccc5)cc4)[C@@H](O)[C@H]3O)c3ncnc(N)c23)n1 [Compound I-116]	100 to 1000
Cn1ccc(-c2cn([C@@H]3O[C@H](C(=O)Nc4cnccn4)[C@@H](O)[C@H]3O)c3ncnc(N)c23)n1 [Compound I-91]	≥ 1000
Cc1cc(NC(=O)[C@H]2O[C@@H](n3cc(-c4ccn(C)n4)c4c(N)ncnc43)[C@H](O)[C@@H]2O)n(C)n1 [Compound I-86]	≥ 1000
Cn1ccc(-c2cn([C@@H]3O[C@H](C(=O)Nc4ccc(Oc5ccccc5)cc4)[C@@H](O)[C@H]3O)c3ncnc(N)c23)n1 [Compound I-100]	100 to 1000
Cn1ccc(-c2cn([C@@H]3O[C@H](C(=O)Nc4ccc5nsnc5c4)[C@@H](O)[C@H]3O)c3ncnc(N)c23)n1 [Compound I-94]	100 to 1000
Cn1ccc(-c2cn([C@@H]3O[C@H](C(=O)Nc4ccc(-c5ccccc5)cn4)[C@@H](O)[C@H]3O)c3ncnc(N)c23)n1 [Compound I-79]	≥ 1000
CCCCc1ccc(NC(=O)[C@H]2O[C@@H](n3cc(-c4ccn(C)n4)c4c(N)ncnc43)[C@H](O)[C@@H]2O)cc1 [Compound I-110]	100 to 1000
CC(C)OCCNC(=O)[C@H]1O[C@@H](n2cc(-c3ccn(C)n3)c3c(N)ncnc32)[C@H](O)[C@@H]1O [Compound I-73]	≥ 1000
Cn1ccc(-c2cn([C@@H]3O[C@H](C(=O)Nc4ccc(OCCN5CCOCC5)cc4)[C@@H](O)[C@H]3O)c3ncnc(N)c23)n1 [Compound I-139]	100 to 1000
Cn1ccc(-c2cn([C@@H]3O[C@H](C(=O)Nc4ccc(-c5ccccc5)cc4)[C@@H](O)[C@H]3O)c3ncnc(N)c23)n1 [Compound I-98]	100 to 1000
Cn1ccc(-c2cn([C@@H]3O[C@H](C(=O)NC(Cc4ccccc4)c4ccccc4)[C@@H](O)[C@H]3O)c3ncnc(N)c23)n1 (some centres unmarked) [Compound I-115]	100 to 1000

Second part, the compound after the results:

IC50 [nM]	Compound
100 to 1000	Cn1ccc(-c2cn([C@@H]3O[C@H](C(=O)NCc4ccc5ccccc5c4)[C@@H](O)[C@H]3O)c3ncnc(N)c23)n1 [Compound I-131]
100 to 1000	COc1ccccc1CNC(=O)[C@H]1O[C@@H](n2cc(-c3ccn(C)n3)c3c(N)ncnc32)[C@H](O)[C@@H]1O [Compound I-97]
100 to 1000	Cn1ccc(-c2cn([C@@H]3O[C@H](C(=O)Nc4cccc(C#N)c4)[C@@H](O)[C@H]3O)c3ncnc(N)c23)n1 [Compound I-105]
≥ 1000	Cn1ccc(-c2cn([C@@H]3O[C@H](C(=O)Nc4ccc5ccccc5n4)[C@@H](O)[C@H]3O)c3ncnc(N)c23)n1 [Compound I-66]
≥ 1000	Cc1ccc(NC(=O)[C@H]2O[C@@H](n3cc(-c4ccn(C)n4)c4c(N)ncnc43)[C@H](O)[C@@H]2O)cc1Cl [Compound I-71]
100 to 1000	Cn1ccc(-c2cn([C@@H]3O[C@H](C(=O)NCCc4ccccc4Cl)[C@@H](O)[C@H]3O)c3ncnc(N)c23)n1 [Compound I-133]
≥ 1000	Cn1ccc(-c2cn([C@@H]3O[C@H](C(=O)NCc4ccc(OC(F)(F)F)cc4)[C@@H](O)[C@H]3O)c3ncnc(N)c23)n1 [Compound I-84]
10 to 100	COc1ccc(NC(=O)[C@H]2O[C@@H](n3cc(-c4ccn(C)n4)c4c(N)ncnc43)[C@H](O)[C@@H]2O)cc1Cl [Compound I-140]
≥ 1000	CC(O)CNC(=O)[C@H]1O[C@@H](n2cc(-c3ccn(C)n3)c3c(N)ncnc32)[C@H](O)[C@@H]1O (some centres unmarked) [Compound I-81]
100 to 1000	Cn1ccc(-c2cn([C@@H]3O[C@H](C(=O)NCCc4ccncc4)[C@@H](O)[C@H]3O)c3ncnc(N)c23)n1 [Compound I-112]
≥ 1000	Cn1ccc(-c2cn([C@@H]3O[C@H](C(=O)N[C@H](CO)c4ccccc4)[C@@H](O)[C@H]3O)c3ncnc(N)c23)n1 [Compound I-87]
100 to 1000	Cn1ccc(-c2cn([C@@H]3O[C@H](C(=O)Nc4ccc5ccccc5c4)[C@@H](O)[C@H]3O)c3ncnc(N)c23)n1 [Compound I-114]
100 to 1000	COc1ccccc1[C@H](C)NC(=O)[C@H]1O[C@@H](n2cc(-c3ccn(C)n3)c3c(N)ncnc32)[C@H](O)[C@@H]1O [Compound I-119]
≥ 1000	CCc1cccc(NC(=O)[C@H]2O[C@@H](n3cc(-c4ccn(C)n4)c4c(N)ncnc43)[C@H](O)[C@@H]2O)n1 [Compound I-85]
100 to 1000	Cn1ccc(-c2cn([C@@H]3O[C@H](C(=O)NCCc4ccc5ccccc5c4)[C@@H](O)[C@H]3O)c3ncnc(N)c23)n1 [Compound I-134]
100 to 1000	Cn1ccc(-c2cn([C@@H]3O[C@H](C(=O)NCc4ccccc4-n4cccn4)[C@@H](O)[C@H]3O)c3ncnc(N)c23)n1 [Compound I-121]
100 to 1000	Cn1ccc(-c2cn([C@@H]3O[C@H](C(=O)NCCc4ccc(Cl)cc4)[C@@H](O)[C@H]3O)c3ncnc(N)c23)n1 [Compound I-111]
